Laboratory results from the NIST ThermoML archive (doi:10.1016/j.jct.2018.03.013).

Experiment: xn = mol fraction of the nth substance listed
Conditions: 100 kPa, Liquid; for speed of sound: Frequency=3 MHz, Linear variable-path acoustic interferometer; for mass density: Pycnometric method

C=C(C)C(=O)OC [methyl methacrylate] + CC#N
Conditions | mass density [kg/m3] | speed of sound [m/s]
293.15 K, x2 = 0 | 943.38 | 1200.5
293.15 K, x2 = 0.0688 | 938.34 | 1207.5
293.15 K, x2 = 0.1376 | 932.76 | 1214.3
293.15 K, x2 = 0.1957 | 927.6 | 1220
293.15 K, x2 = 0.2716 | 920.18 | 1227.3
293.15 K, x2 = 0.3344 | 913.41 | 1233.2
293.15 K, x2 = 0.4135 | 903.99 | 1240.5
293.15 K, x2 = 0.4916 | 893.58 | 1247.5
293.15 K, x2 = 0.5649 | 882.66 | 1254.2
293.15 K, x2 = 0.6386 | 870.38 | 1261
293.15 K, x2 = 0.7084 | 857.36 | 1267.7
293.15 K, x2 = 0.7927 | 839.5 | 1276.4
293.15 K, x2 = 0.855 | 824.53 | 1283.5
293.15 K, x2 = 0.9073 | 810.58 | 1290.3
293.15 K, x2 = 0.9497 | 798.21 | 1296.3
298.15 K, x2 = 0 | 937.64 | 1183.6
298.15 K, x2 = 0.0688 | 932.64 | 1190.6
298.15 K, x2 = 0.1376 | 927.09 | 1197.2
298.15 K, x2 = 0.1957 | 921.95 | 1202.7
298.15 K, x2 = 0.2716 | 914.56 | 1209.7
298.15 K, x2 = 0.3344 | 907.81 | 1215.3
298.15 K, x2 = 0.4135 | 898.42 | 1222.3
298.15 K, x2 = 0.4916 | 888.04 | 1229
298.15 K, x2 = 0.5649 | 877.15 | 1235.3
298.15 K, x2 = 0.6386 | 864.91 | 1241.7
298.15 K, x2 = 0.7084 | 851.92 | 1248
298.15 K, x2 = 0.7927 | 834.09 | 1256.2
298.15 K, x2 = 0.855 | 819.15 | 1263
298.15 K, x2 = 0.9073 | 805.23 | 1269.3
298.15 K, x2 = 0.9497 | 792.88 | 1275
303.15 K, x2 = 0 | 931.9 | 1168.5
303.15 K, x2 = 0.0688 | 926.94 | 1175.5
303.15 K, x2 = 0.1376 | 921.42 | 1182
303.15 K, x2 = 0.1957 | 916.3 | 1187.4
303.15 K, x2 = 0.2716 | 908.94 | 1194.1
303.15 K, x2 = 0.3344 | 902.21 | 1199.5
303.15 K, x2 = 0.4135 | 892.85 | 1206.2
303.15 K, x2 = 0.4916 | 882.5 | 1212.6
303.15 K, x2 = 0.5649 | 871.64 | 1218.6
303.15 K, x2 = 0.6386 | 859.43 | 1224.8
303.15 K, x2 = 0.7084 | 846.47 | 1230.8
303.15 K, x2 = 0.7927 | 828.68 | 1238.7
303.15 K, x2 = 0.855 | 813.77 | 1245.1
303.15 K, x2 = 0.9073 | 799.87 | 1251.2
303.15 K, x2 = 0.9497 | 787.55 | 1256.6
308.15 K, x2 = 0 | 926.16 | 1152.6
308.15 K, x2 = 0.0688 | 921.23 | 1159.6
308.15 K, x2 = 0.1376 | 915.74 | 1166
308.15 K, x2 = 0.1957 | 910.65 | 1171.2
308.15 K, x2 = 0.2716 | 903.31 | 1177.8
308.15 K, x2 = 0.3344 | 896.61 | 1183
308.15 K, x2 = 0.4135 | 887.27 | 1189.5
308.15 K, x2 = 0.4916 | 876.95 | 1195.7
308.15 K, x2 = 0.5649 | 866.13 | 1201.5
308.15 K, x2 = 0.6386 | 853.94 | 1207.4
308.15 K, x2 = 0.7084 | 841.01 | 1213.2
308.15 K, x2 = 0.7927 | 823.27 | 1220.8
308.15 K, x2 = 0.855 | 808.39 | 1227.1
308.15 K, x2 = 0.9073 | 794.51 | 1233
308.15 K, x2 = 0.9497 | 782.21 | 1238.2
313.15 K, x2 = 0 | 920.42 | 1135.4
313.15 K, x2 = 0.0688 | 915.52 | 1142.4
313.15 K, x2 = 0.1376 | 910.06 | 1148.7
313.15 K, x2 = 0.1957 | 904.99 | 1153.9
313.15 K, x2 = 0.2716 | 897.68 | 1160.3
313.15 K, x2 = 0.3344 | 891 | 1165.6
313.15 K, x2 = 0.4135 | 881.69 | 1172
313.15 K, x2 = 0.4916 | 871.4 | 1178.1
313.15 K, x2 = 0.5649 | 860.61 | 1183.8
313.15 K, x2 = 0.6386 | 848.45 | 1189.5
313.15 K, x2 = 0.7084 | 835.55 | 1195.2
313.15 K, x2 = 0.7927 | 817.85 | 1202.7
313.15 K, x2 = 0.855 | 803 | 1208.9
313.15 K, x2 = 0.9073 | 789.15 | 1214.7
313.15 K, x2 = 0.9497 | 776.87 | 1219.8
318.15 K, x2 = 0 | 914.67 | 1118.3
318.15 K, x2 = 0.0688 | 909.81 | 1125.1
318.15 K, x2 = 0.1376 | 904.38 | 1131.5
318.15 K, x2 = 0.1957 | 899.33 | 1136.6
318.15 K, x2 = 0.2716 | 892.05 | 1143.1
318.15 K, x2 = 0.3344 | 885.39 | 1148.2
318.15 K, x2 = 0.4135 | 876.11 | 1154.5
318.15 K, x2 = 0.4916 | 865.85 | 1160.5
318.15 K, x2 = 0.5649 | 855.09 | 1166.1
318.15 K, x2 = 0.6386 | 842.96 | 1171.8
318.15 K, x2 = 0.7084 | 830.09 | 1177.3
318.15 K, x2 = 0.7927 | 812.43 | 1184.6
318.15 K, x2 = 0.855 | 797.61 | 1190.7
318.15 K, x2 = 0.9073 | 783.79 | 1196.3
318.15 K, x2 = 0.9497 | 771.53 | 1201.4
